The test system of assay [1] is bone marrow cell-derived osteoclasts (OC formation). Briefly: In vitro osteoclast formation, count of TRAP-positive multinucleate cells. Format: cell-based, mouse. The settings on record: for OC differentiation in the presence of carbohydrate chain: carbohydrate chain 10 ng/mL, FIG. 8e; for OC formation (number of TRAP-positive MNCs): KS-II 100 ng/mL, FIGS. 8c, 8d. On the procedure: Nonadherent bone marrow cells were seeded in a well plate (in a 24-well plate at 5×10^5 cells/well or in a […] at 3×10^6 cells/well) and were cultured in α-MEM (Gibco BRL) containing 10% FCS (manufactured by Biowest AG) and 10 ng/mL M-CSF (manufactured by R&D Systems, Inc.). After two days, nonadherent cells (including lymphocytes) were washed away, and remaining adherent cells were used as bone marrow-derived macrophages (BMMs). These osteoclast precursor cells (pOCs) were further cultured in the presence of 100 ng/mL of soluble RANKL (manufactured by PeproTech Inc. or Oriental Yeast Co., Ltd.) and 10 ng/mL of M-CSF to obtain osteoclasts. After three days, the osteoclasts were fixed in 10% neutral buffered formalin for three minutes, further kept in a mixture of ethanol/acetone (50:50 v:v) for 1 minute and subsequently incubated in a TRAP staining solution (Naphthol AS-MX phosphate: 5 mg, N,N-dimethylformamide: 0.5 mL, fast red violet LB salt: 30 mg, 0.1 M sodium acetate buffer (pH 5.0) containing 50 mM sodium tartrate: 50 mL) at room temperature. The number of TRAP-positive multinucleate cells (MNCs having three or more nuclei) was counted.
(§1) In order to investigate the influence of GM-CSF on osteoclast formation, mouse GM-CSF enzyme immunoassay (manufactured by PerSeptive Biosystems, Inc.), recombinant GM-CSF (manufactured by PeproTech Inc.), and anti-mouse GM-CSF neutralizing antibody (manufactured by R&D Systems, Inc.) were used. Furthermore, in the proliferation assay, pOCs were seeded (in a 96-well plate at 1×10^4 cells/well) and cultured in the presence of 10 ng/mL M-CSF only or M-CSF and 100 ng/mL RANKL or 20 ng/mL GM-CSF for three days. Subsequently, the cells were exposed to [^3H]TdR (0.5 μCi/mL) overnight.

The test system of assay [2] is TNF-α. Briefly: TNF-α production in CpG-containing culture, measured by ELISA. Format: cell-based. Conditions: CpG 1 μM, 12 hours; KS-II 10 ng/mL, versus CpG alone; FIG. 12. The protocol: The anti-DCIR antibodies derived from hybridomas prepared in Example 4 were evaluated for binding ability to DCIR. Since DCIR has been reported to participate in suppression of immunoreaction (Nature Medicine, 2008, vol. 14, no. 2: 176-180), the DCIR-binding ability of each antibody was evaluated using expression of tumor necrosis factor α (TNF-α), which is an inflammatory cytokine, as a standard.
The hybridoma prepared in Example 4 was cultured in a culture medium containing CpG (concentration: 1 μM) for 12 hours, and the culture supernatant was collected. Separately, CpG ODN 1668 (Operon Technologies, Inc.) was cultured in the same medium or a medium further containing keratan sulfate (KS-II: 10 ng/mL), and the culture supernatant was collected. As a control, the cells were cultured in a CpG-free culture medium (NT). The TNF-α amount in each supernatant was measured by ELISA.

Assay [3] addresses T1, DCIR (Mus musculus, UniProt Q9QZ15).
T1 construct: immunoblot analysis for ITIM phosphorylation and SHP-1 recruitment in pOC lysate after KS-II stimulation; endogenous in cells; host or cells: mouse bone-marrow-derived osteoclast precursor cells (pOC)
T1 sequence (Q9QZ15 1-238): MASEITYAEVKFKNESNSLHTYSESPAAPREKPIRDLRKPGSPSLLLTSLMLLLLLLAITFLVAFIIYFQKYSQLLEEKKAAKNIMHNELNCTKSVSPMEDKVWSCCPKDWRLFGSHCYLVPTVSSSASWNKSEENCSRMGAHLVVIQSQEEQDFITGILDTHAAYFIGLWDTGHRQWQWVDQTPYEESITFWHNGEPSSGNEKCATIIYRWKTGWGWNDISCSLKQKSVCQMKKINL
Briefly: Immunoprecipitation/immunoblot analysis of DCIR activation in pOC lysate after KS-II stimulation. In kind it is cell-based. Conditions: immunoprecipitated with anti-DCIR antibody, FIG. 8f. The text has this: In immunoprecipitation analysis, Protein G-Sepharose 4 Fast Flow (manufactured by GE Healthcare), mouse DCIR-specific antibody (320511: manufactured by R&D Systems, Inc.), phospho-Tyr (4G10: manufactured by Millipore), and SHP-1 (HG213: Upstate) were used. As the secondary antibody, a rabbit IgG-specific HRP-linked polyclonal antibody (manufactured by Cell Signaling) or a rat IgG-specific HRP-linked polyclonal antibody (manufactured by Zymed) was used.
A general note: A western blot detects proteins with antibodies after separation by electrophoresis.

Assay [4] concerns the target T2, recombinant mouse DCIR (mDCIR) (Mus musculus, UniProt Q9QZ15).
T2 construct: containing an extracellular domain (99th to 238th residues) was expressed as an inclusion body in E. coli; made in house
T2 sequence (Q9QZ15 99-238): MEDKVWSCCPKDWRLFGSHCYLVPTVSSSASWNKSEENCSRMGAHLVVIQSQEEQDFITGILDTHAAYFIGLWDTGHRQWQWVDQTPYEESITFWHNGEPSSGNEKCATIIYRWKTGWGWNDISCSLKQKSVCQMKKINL
Briefly: Carbohydrate chain binding assay by ELISA. Conditions: KS-II from bovine articular cartilage immobilised on ELISA plate; FIG. 8b. On the procedure:
Carbohydrate chain binding assay was performed in accordance with the method described in J. Bio. Chem., 2004, 279, 29043-29049. KS-II was diluted to 2 mg/mL with 100 mM sodium acetate (pH 5.5) and was oxidized with 2 mM sodium metaperiodate on ice for 1 hour to obtain a reactive aldehyde group. After further dilution, KS-II was incubated on a Covalink ELISA plate at 4° C. overnight and was reduced with 0.3% sodium cyanoborohydride at room temperature for 1.5 hours for covalent bonding. The plate was washed and was blocked with 2% bovine serum albumin (fraction V: manufactured by Sigma Corp.) at 37° C. for two hours. A recombinant mouse DCIR (mDCIR) containing an extracellular domain (99th to 238th residues) was expressed as an inclusion body in E. coli BL21 (DE3) pLysS using a pGMT7 plasmid and the […] was refolded by a typical dilution method. The mDCIR was incubated on the blocked and refolded plate at 4° C. overnight. Binding of protein was detected using anti-DCIR antibodies (a mixture of 320507 and 320511: manufactured by R&D Systems, Inc.) and HRP-linked rat IgG (manufactured by Zymed) in the presence of a TMB substrate (manufactured by Dako).
In general terms: In an ELISA, binding on a coated surface is turned into a signal by an enzyme label.

The test system of assay [5] is osteoclast precursor cells (pOCs). Briefly: Osteoclast differentiation with hybridoma supernatant or KS-II, count of TRAP-positive osteoclasts. In kind it is cell-based. The settings on record: KS-II 10 ng/mL; M-CSF 10 ng/mL + RANKL 100 ng/mL, three days; versus untreated; FIG. 13. On the procedure:
Furthermore, activities of the above-mentioned antibodies on osteoclast formation were evaluated using the activity of keratan sulfate as an indicator. Nonadherent bone marrow cells were seeded in a well plate (a 96-well plate at 1×10^5 cells/well) and were cultured in α-MEM (Gibco BRL) containing 10% FCS (manufactured by Biowest AG) and 10 ng/mL M-CSF (manufactured by R&D Systems, Inc.). After two days, the nonadherent cells (including lymphocytes) were washed away, and the remaining adherent cells were used as bone marrow-derived macrophages (BMMs). These osteoclast precursor cells (pOCs) were further cultured in the presence of 100 ng/mL of soluble RANKL (manufactured by PeproTech Inc. or Oriental Yeast Co., Ltd.) and 10 ng/mL of M-CSF to obtain osteoclasts. During the culturing, the hybridoma supernatant (one-tenth amount) or keratan sulfate (KS-II: 10 ng/mL) was added to the culture medium. After three days, the cells were collected and stained with TRAP. The number of TRAP-positive osteoclasts (having three or more nuclei) was counted. Untreated cells were used as a control (NT).

For assay [6], the system named is calvarial OBs. Briefly: Mineralization of calvarial osteoblasts (alizarin red and ALP staining of osteogenic culture). Format: cell-based, mouse. Conditions: FIG. 10f. The protocol:
Primary osteoblasts were isolated from the calvaria of a new born mouse. The calvaria was washed with PBS and was digested in α-MEM containing 0.25% trypsin and 2 mg/mL collagenase P (manufactured by Roche) at 37° C. for 20 minutes. The supernatant was removed, and the cells were further digested for 60 minutes.
In order to induce osteogenesis, primary osteoblasts (in a 96-well plate at 2×10^4 cells/well, in a 24-well plate at 5×10^4 cells/well, or in a 6-well plate at 2×10^5 cells/well) were cultured to confluent, and the culture medium was replaced by a culture medium containing 10 mM β-glycerophosphate and 50 μg/mL ascorbic acid. The culture medium was replaced three times in 21 days.
The osteoblasts cultured for 21 days were stained with alizarin red, von Kossa, and alkaline phosphatase (ALP).
The culture solution was removed from the osteoblasts cultured for 21 days by using PBS, and the osteoblasts were fixed with 3.7% formalin solution (Nacalai Tesque, Inc.) for 10 minutes. […]
Primary osteoblasts were cultured in a 96-well plate for 21 days and were measured with a TRACP & ALP Assay Kit (TaKaRa Bio Inc.). […] The reaction was terminated with 50 μL of a reaction terminating solution, and subsequently the activity was measured with MICROPLATE READER MTP-300 (CORONA ELECTRIC Co., Ltd.) at OD405.

Assay [7] relates to OPG/RANKL ratio. Briefly: Real-time RT-PCR of OPG/RANKL ratio in calvarial OBs. Format: cell-based. Conditions: WT mouse-derived OBs only (not KO); FIGS. 10k, 10l. The protocol:
Semi-quantitative RT-PCR and real-time RT-PCR were slightly modified, but basically performed in accordance with the methods described in Nature Medicine, 2008, vol. 14, no. 2: 176-180 and Arthritis Res. Ther., 2006, 8, R100, 1-13. Total RNA was prepared by a typical acid guanidinium thiocyanate-phenol-chloroform method or a method using Sepasol-RNA I Super (manufactured by Nacalai Tesque, Inc.). The prepared RNA was reverse transcribed with SuperScript III First-Strand Synthesis System for RT-PCR (manufactured by Invitrogen) to prepare cDNA.
The real-time RT-PCR was performed using primers shown in Table 1, SYBR Green qPCR kit (manufactured by Invitrogen), and iCycler (manufactured by Bio-Rad Laboratories, Inc.).
Background: In qPCR the cycle at which signal appears reflects the starting amount.

Assay [8] has as its system osteoclast precursor cells (pOCs). Briefly: Proliferation assay using pOC after GM-CSF stimulation. Format: cell-based, mouse. The settings on record: Dcir−/− pOCs; M-CSF 10 ng/mL and GM-CSF 20 ng/mL. On the procedure:
as §1

On to `CC(=O)N[C@H]1C(O)O[C@H](CO)[C@@H](O[C@@H]2O[C@H](CO)[C@H](O)[C@H](O)[C@H]2O)[C@@H]1O` (some centres unmarked) [LacNAc, N-acetyllactosamine], for which the “OC differentiation in the presence of carbohydrate chain” value (from here on “OC differentiation in the presence”) in assay [1] is “not influenced”.

On to chondroitin sulfate A, for which, in assay [1], the “OC differentiation in the presence” value is given as “not influenced”.

On to dermatan sulfate, for which the “OC differentiation in the presence” value in assay [1] is listed as “not influenced”.

On to keratan sulfate-II [KS-II], for which the TNF-α production entry in assay [2] is “suppressed”. Also, the “phosphorylation of immunoreceptor tyrosine-based inhibitory motif (ITIM) in DCIR” value in assay [3] is on record as “concentration-dependently accelerates”. The “recruitment of tyrosine phosphatase SHP-1 in DCIR” value in assay [3] is “concentration-dependently accelerates”. For the same molecule, the entries for the “OC formation (number of TRAP-positive MNCs)” value in assay [1] (Dcir−/− cell culture) and in assay [1] (wild-type (WT) bone marrow cell culture) were “did not inhibit” and “considerably inhibited”, respectively. In addition, the “binding of recombinant mouse DCIR to KS-II” value in assay [4] is “concentration-dependently binds”. The “differentiation to osteoclast (TRAP-positive, three or more nuclei)” value in assay [5] is on record as “suppressed”. Further, the “mineralization of OBs” value is given as “does not suppress” in assay [6] (Dcir−/− OBs) and “suppresses” in assay [6] (WT OBs). Also, the OPG/RANKL ratio result in assay [7] is “decreases”.

B1: GM-CSF: recombinant mouse GM-CSF (manufactured by PeproTech Inc.) (protein, UniProt P01587 18-141, looked up)
Granulocyte-macrophage …: APTRSPITVTRPWKHVEAIKEALNLLDDMPVTLNEEVEVVSNEFSFKKLTCVQTRLKIFEQGLRGNFTKLKGALNMTASYYQTYCPPTPETDCETQVTTYADFIDSLKTFLTDIPFECKKPGQK
On to B1, for which, in assay [8], the “proliferation of pOCs” value was “significantly increased”.

For the origin of these results see patent US20130058957A1, “DENDRITIC CELL IMMUNORECEPTOR AGONIST” (THE UNIVERSITY OF TOKYO, priority 2010, published 2013).
